We go through 1 compound from patent publication US7470690B2, “4-(2-Fluorophenyl)-6-methyl-2-(1-piperazinyl)thieno[2,3-D)pyrimidine in the treatment of functional bowel disorder” (Dynogen Pharmaceuticals, Inc., priority 2002, dated 2008).

In the assay the test system is male Sprague-Dawley rats. As to the kind of experiment: Inhibition of the reflex depressor response to colorectal distension in anaesthetised rats. In kind it is in vivo, rat. As to conditions: for Fall in arterial blood pressure (mean absolute decrease in mean arterial pressure, standard error of mean in brackets) evoked by distension of the balloon: following MCI-225 3 mg/kg i.v. The text has this:
The data on which this invention is based will now be described. In a study using intact animals, the ability of a drug to inhibit the reflex depressor response to colorectal distension can be assessed. In this model, an inhibition of the reflex indicates modulation of visceral nociceptive neurotransmission and, therefore, the use of the drug in functional bowel disease (e.g. IBS); see Kozlowski et al, 2000, Gut 46, 474-480. Allodynia and visceral pain are important components of functional bowel disease.
Experiments were performed on male Sprague-Dawley rats (250-300 g). Anaesthesia was induced with isoflurane (2.5% in oxygen) and maintained with alpha chlorolose (80 mg/kg i.v.). The left carotid artery was cannulated for the measurement of blood pressure and heart rate and the left jugular vein cannulated for drug administration. A tracheal cannula was implanted for artificial respiration if required. A 10 mm long latex balloon was inserted intrarectally so that the tip of the balloon was 20 mm from the anal verge (Kozlowski et al, supra). The balloon was connected via a double lumen cannula to a pressure transducer and also to a saline-filled syringe for inflation/deflation of the balloon. Throughout the experiment, body temperature was kept constant at 36-38 C using a homeothermic blanket.
Once stable baseline parameters were obtained (approximately after 20 minutes), the balloon was rapidly inflated with increasing volumes of saline (0.5-2.5 ml) for 30 seconds at 5 minute intervals, and the resultant change in blood pressure recorded. Three distinct response curves were constructed, with a 10 minute stabilisation period between each curve. In one group of animals, 10 minutes prior to the commencement of the final distension response curve, a single bolus of MCI-225 (3 mg/kg) was administered intravenously; in a second group of animals, a single bolus dose of vehicle was administered. The effect of MCI-225 and vehicle was determined by analysing the changes in colorectal distension that evoked depressor response.

As for `Cc1cc2c(-c3ccccc3F)nc(N3CCNCC3)nc2s1.Cl.O` [MCI-225, 4-(2-Fluorophenyl)-6-methyl-2-(1-piperazinyl)thieno[2,3-D]pyrimidine monohydrate hydrochloride], for the setting “3 mg/kg i.v., colorectal balloon distension”, the “Effect on distension-induced falls in blood pressure (in words)” value is on record as “inhibited the distension-induced falls in blood pressure”. Moreover, the “Fall in arterial blood pressure (mean absolute decrease in mean arterial pressure, standard error of mean in brackets) evoked by distension of the balloon” value runs as follows: (0.5 ml balloon volume, n=6) 2.2 (1.65) mmHg; (1.0 ml balloon volume, n=6) 6.3 (2.6) mmHg; (1.5 ml balloon volume, n=6) 10.6 (3.9) mmHg; (2.0 ml balloon volume, n=6, p less than 0.01 vs before drug (paired t test)) 15.3 (5.4) mmHg; (2.5 ml balloon volume, n=5, p less than 0.05 vs before drug (paired t test)) 24.6 (7.3) mmHg.
